# Measurements from US5571701A, “Antibiotic, balhimycin, a process for its production and its use as pharmaceutical” (priority 1990, dated 1996).
# Structures can show the parent of a compound that is named as a salt.
# Legend:
# [1] = Solubility (physico-chemical properties); type: physicochemical; conditions: as its trifluoroacetate salt; solvents in which soluble
# [2] = test system: P. vulaaris; assay: Minimum inhibitory concentration (MIC), antibacterial activity; type: cell-based
# [3] = test system: Ps. aeruaingu; assay: as above; type: cell-based
compound,measurement,setting,value
"CNC(CC(C)C)C(=O)NC1C(=O)NC(CC(N)=O)C(=O)NC2C(=O)NC3C(=O)NC(C(=O)NC(C(=O)O)c4cc(O)cc(O)c4-c4cc3ccc4O)C(OC3C[C@](C)(N)C(=O)C(C)O3)c3ccc(c(Cl)c3)Oc3cc2cc(c3OC2O[C@H](CO)C(O)[C@H](O)C2O)Oc2ccc(cc2Cl)C1O (stereo partly drawn) [Balhimycin trifluoroacetate, Balhimycin]",Solubility,[1],"Water, dimethylsulfoxide"
same,MIC,[2],> 100 µg/mL
same,MIC,[3],> 100 µg/mL
